Test results: US5395609A, “Synthetic peptides for use in tumor detection” (Antisoma Limited, priority 1989, dated 1995)
No end group written: not given here.

Test system: metastatic lesions of pelvic melanoma
Assay: Imaging of metastatic lesions in a human patient with pelvic melanoma after intravenous radiolabelled peptide
Type: in vivo
Protocol: 100 micrograms of the peptide […] labelled with technetium were administered intravenously as one single dose to a human patient with a pelvic melanoma which has metastrasised to the liver.

Question: “RGDSCRGDSY labelled with technetium: peptide RGDSCRGDSY labelled with technetium (also: labelled with technetium)” was tested. Which “uptake of radiolabelled peptide at metastatic lesions, early view” value (100 micrograms i.v. single dose, FIG. 2) did it give?
Answer: various sites of uptake (arrow) which correspond to the known metastatic lesions

Question: And the “retention of radiolabelled peptide by metastatic lesions” value (100 micrograms i.v., one hour later, FIG. 3)?
Answer: retention of the radiolabelled peptide by the metastatic lesions
